Measured values from PubChem BioAssay AID192 (DTP/NCI, 2004).
“And” between values parts separate entries of the source, which are not always exact repeats. Equal entries are not always repeated. Toxic doses and inconclusive results are not listed.

System: BDF1 mice, B16 melanoma ip, median survival T/C
Assay: NCI In Vivo Anticancer Drug Screen. Data for tumor model B16 Melanoma (intraperitoneal) in B6D2F1 (BDF1) mice
Conditions: endpoint: median survival time, higher = longer survival
Summary of the method: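 Transplantable tumor model; survival or tumor size measured; reported as T/C, treated over vehicle control.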

[1] = dose: 12.5 mg/kg/injection, schedule: Q01DX009 (ip), vehicle: saline
[2] = dose: 25.0 mg/kg/injection, schedule: Q01DX009 (ip), vehicle: saline
[3] = dose: 50.0 mg/kg/injection, schedule: Q01DX009 (ip), vehicle: saline
[4] = dose: 100.0 mg/kg/injection, schedule: Q04DX003 (ip), vehicle: Klucel (hydroxypropylcellulose) (HPC)
[5] = dose: 200.0 mg/kg/injection, schedule: Q04DX003 (ip), vehicle: Klucel (hydroxypropylcellulose) (HPC)
[6] = dose: 12.5 mg/kg/injection, schedule: Q01DX009 (ip), vehicle: saline with Tween-80
[7] = dose: 25.0 mg/kg/injection, schedule: Q01DX009 (ip), vehicle: saline with Tween-80
[8] = dose: 50.0 mg/kg/injection, schedule: Q01DX009 (ip), vehicle: saline with Tween-80
[9] = dose: 6.25 mg/kg/injection, schedule: Q01DX009 (ip), vehicle: saline with Tween-80
[10] = dose: 100.0 mg/kg/injection, schedule: Q01DX009 (ip), vehicle: Klucel (hydroxypropylcellulose) (HPC)
[11] = dose: 200.0 mg/kg/injection, schedule: Q01DX009 (ip), vehicle: Klucel (hydroxypropylcellulose) (HPC)
[12] = dose: 400.0 mg/kg/injection, schedule: Q01DX009 (ip), vehicle: Klucel (hydroxypropylcellulose) (HPC)
[13] = dose: 100.0 mg/kg/injection, schedule: Q01DX009 (ip), vehicle: saline with Tween-80
[14] = dose: 6.25 mg/kg/injection, schedule: Q01DX009 (ip), vehicle: Klucel (hydroxypropylcellulose) (HPC)

`C#CCC1(OC(N)=O)CCCCC1` was tested, and the T/C (dose: 6.25 mg/kg/injection, schedule: Q04DX003 (ip), vehicle: Klucel (hydroxypropylcellulose) (HPC)) was 99 % of control, the T/C [1] was 104 % of control and the T/C (dose: 12.5 mg/kg/injection, schedule: Q04DX003 (ip), vehicle: Klucel (hydroxypropylcellulose) (HPC)) was 97 % of control. The T/C [2] was 100 % of control, the T/C (dose: 25.0 mg/kg/injection, schedule: Q04DX003 (ip), vehicle: Klucel (hydroxypropylcellulose) (HPC)) was 97 % of control and the T/C [3] was 89 % of control. The T/C (dose: 50.0 mg/kg/injection, schedule: Q04DX003 (ip), vehicle: Klucel (hydroxypropylcellulose) (HPC)) was 98 % of control, the T/C (dose: 100.0 mg/kg/injection, schedule: Q01DX009 (ip), vehicle: saline) was 87 % of control and the T/C [4] was 103 % of control. The T/C [5] was 95 % of control.
For `C[n+]1c(-c2cccc(OCCOCCOc3cccc(-c4c5cc(N)ccc5c5ccc(N)cc5[n+]4C)c3)c2)c2cc(N)ccc2c2ccc(N)cc21`, the T/C (dose: 0.5 mg/kg/injection, schedule: Q01DX009 (ip), vehicle: water) was 110 % of control.
`Cc1cc2ccccc2c[n+]1C` was tested, and the T/C (dose: 12.5 mg/kg/injection, schedule: Q04DX003 (ip), vehicle: saline) was 95 % of control, the T/C (dose: 25.0 mg/kg/injection, schedule: Q04DX003 (ip), vehicle: saline) was 95 % of control and the T/C (dose: 50.0 mg/kg/injection, schedule: Q04DX003 (ip), vehicle: saline) was 95 % of control.
For `CC(C)N(C(=O)c1ccc(C(=O)N(c2ccccc2)C(C)C)cc1)c1ccccc1`, the T/C [6] was 103 % of control, the T/C [7] was 99 % of control and the T/C [8] was 99 % of control.
In the case of `C#CC(OC(=O)NC1CCCCC1)(c1ccccc1)c1ccccc1`, the T/C [9] is reported as 105 % of control, the T/C [6] is reported as 100 % of control and the T/C [7] is reported as 113 % of control.
With `Oc1ccc2ccccc2c1N=Nc1ccc(Cl)cc1` the T/C (dose: 400.0 mg/kg/injection, schedule: Q01DX009 (ip), vehicle: saline with Tween-80) was 90 % of control.
In the case of `CC1c2cccc(Cl)c2C(=O)c2c(Cl)cccc21`, the T/C [10] is reported as 102 % of control, the T/C [11] is reported as 100 % of control and the T/C [12] is reported as 102 % of control.
With `CC(C)c1ccc(O)c(O)c1` the T/C [1] was 95 % of control, the T/C [7] was 104 % of control and the T/C [2] was 100 % of control. The T/C [3] was 96 % of control.
In the case of `O=[N+]([O-])c1ccc(S(=O)(=O)N/N=C\c2ccc(Cl)c(Cl)c2)cc1`, the T/C [6] is reported as 109 % of control, the T/C [7] is reported as 114 % of control and the T/C [8] is reported as 112 % of control.
For `O=C(NC1CCc2ccccc21)c1ccccc1` (configuration not stated), the T/C [9] was 100 % of control, the T/C [6] was 92 % of control and the T/C [7] was 91 % of control and 95 % of control. For the same compound, the T/C [13] was 90 % of control.
In the case of `O=C(Cl)c1ccccc1S(=O)(=O)N(CCOc1ccccc1)c1ccccc1`, the T/C [10] is reported as 90 % of control, the T/C [11] is reported as 96 % of control and the T/C [12] is reported as 87 % of control.
`Cc1ccc([N+](=O)[O-])c(OC(=O)Nc2ccccc2Cl)c1` was tested, and the T/C [4] was 100 % of control, the T/C [5] was 93 % of control and the T/C (dose: 400.0 mg/kg/injection, schedule: Q04DX003 (ip), vehicle: Klucel (hydroxypropylcellulose) (HPC)) was 93 % of control.
With `Cc1nnc(NC(=O)CCl)s1` the T/C [7] was 97 % of control, the T/C [8] was 105 % of control and the T/C [13] was 97 % of control.
With `C[As](C)Sc1ncccn1` the T/C (dose: 3.13 mg/kg/injection, schedule: Q01DX009 (ip), vehicle: Klucel (hydroxypropylcellulose) (HPC)) was 100 % of control and the T/C [14] was 100 % of control.
For `CO[C@H]1C[C@](C)(O)Cc2cc3c(c(O)c21)C(=O)c1c(O)cc2c(c1C3=O)O[C@@H]1O[C@@]2(C)[C@H](O)[C@@H](N(C)C)[C@@H]1O`, the T/C (dose: 0.78 mg/kg/injection, schedule: Q01DX009 (ip), vehicle: other) was 110 % of control, the T/C (dose: 1.56 mg/kg/injection, schedule: Q01DX009 (ip), vehicle: other) was 118 % of control and the T/C (dose: 2.3 mg/kg/injection, schedule: Q01DX005 (ip), vehicle: other) was 169 % of control. For the same compound, the T/C (dose: 2.3 mg/kg/injection, schedule: Q01DX005 (iv), vehicle: other) was 97 % of control, the T/C (dose: 2.3 mg/kg/injection, schedule: Q01DX009 (ip), vehicle: other) was 194 % of control and the T/C (dose: 3.12 mg/kg/injection, schedule: Q01DX009 (ip), vehicle: other) was 159 % of control. For the same compound, the T/C (dose: 3.13 mg/kg/injection, schedule: Q01DX009 (ip), vehicle: other) was 167 % of control, the T/C (dose: 4.5 mg/kg/injection, schedule: Q01DX005 (ip), vehicle: other) was 200 % of control and the T/C (dose: 4.5 mg/kg/injection, schedule: Q01DX005 (iv), vehicle: other) was 110 % of control. The T/C (dose: 4.5 mg/kg/injection, schedule: Q01DX005 (oral), vehicle: other) was 95 % of control, the T/C (dose: 4.5 mg/kg/injection, schedule: Q01DX009 (ip), vehicle: other) was 185 % of control and the T/C (dose: 4.5 mg/kg/injection, schedule: Q01DX009 (oral), vehicle: other) was 99 % of control. The T/C (dose: 6.25 mg/kg/injection, schedule: Q01DX009 (ip), vehicle: other) was 173 % of control and 177 % of control and 183 % of control, the T/C (dose: 9.0 mg/kg/injection, schedule: Q01DX005 (ip), vehicle: other) was 213 % of control and the T/C (dose: 9.0 mg/kg/injection, schedule: Q01DX005 (iv), vehicle: other) was 112 % of control. The T/C (dose: 9.0 mg/kg/injection, schedule: Q01DX005 (oral), vehicle: other) was 97 % of control, the T/C (dose: 9.0 mg/kg/injection, schedule: Q01DX009 (ip), vehicle: other) was 272 % of control and the T/C (dose: 9.0 mg/kg/injection, schedule: Q01DX009 (oral), vehicle: other) was 107 % of control. The T/C (dose: 10.8 mg/kg/injection, schedule: Q04DX003 (ip), vehicle: lactic acid) was 203 % of control, the T/C (dose: 12.5 mg/kg/injection, schedule: Q01DX009 (ip), vehicle: other) was 167 % of control and 191 % of control and 209 % of control and the T/C (dose: 18.0 mg/kg/injection, schedule: Q01DX001 (ip), vehicle: other) was 158 % of control. The T/C (dose: 18.0 mg/kg/injection, schedule: Q01DX001 (iv), vehicle: other) was 100 % of control, the T/C (dose: 18.0 mg/kg/injection, schedule: Q01DX005 (ip), vehicle: other) was 236 % of control and the T/C (dose: 18.0 mg/kg/injection, schedule: Q01DX005 (oral), vehicle: other) was 108 % of control. The T/C (dose: 18.0 mg/kg/injection, schedule: Q01DX009 (oral), vehicle: other) was 116 % of control, the T/C (dose: 25.0 mg/kg/injection, schedule: Q01DX001 (ip), vehicle: water) was 100 % of control and the T/C (dose: 36.0 mg/kg/injection, schedule: Q01DX001 (ip), vehicle: other) was 153 % of control. The T/C (dose: 36.0 mg/kg/injection, schedule: Q01DX001 (oral), vehicle: other) was 103 % of control, the T/C (dose: 36.0 mg/kg/injection, schedule: Q01DX005 (oral), vehicle: other) was 121 % of control and the T/C (dose: 72.0 mg/kg/injection, schedule: Q01DX001 (oral), vehicle: other) was 119 % of control.
In the case of `CC(CN(C)C)C(=O)c1ccccc1` (configuration not stated), the T/C (dose: 25.0 mg/kg/injection, schedule: Q01DX009 (ip), vehicle: Klucel (hydroxypropylcellulose) (HPC)) is reported as 106 % of control, the T/C (dose: 50.0 mg/kg/injection, schedule: Q01DX009 (ip), vehicle: Klucel (hydroxypropylcellulose) (HPC)) is reported as 90 % of control and the T/C [10] is reported as 96 % of control.
`[Cl][Pt+2][Cl].[NH-]CC1(C[NH-])CCCC1` was tested, and the T/C (dose: 0.5 mg/kg/injection, schedule: Q01DX009 (ip), vehicle: saline) was 124 % of control, the T/C (dose: 1.0 mg/kg/injection, schedule: Q01DX009 (ip), vehicle: saline) was 112 % of control and the T/C (dose: 2.0 mg/kg/injection, schedule: Q01DX009 (ip), vehicle: saline) was 157 % of control.
In the case of `CC(C)(CN=Cc1ccccc1[O-])N=Cc1ccccc1[O-].[O]=[V]`, the T/C [9] is reported as 95 % of control, the T/C (dose: 6.25 mg/kg/injection, schedule: Q04DX003 (ip), vehicle: saline with Tween-80) is reported as 113 % of control and the T/C [6] is reported as 95 % of control. The T/C (dose: 12.5 mg/kg/injection, schedule: Q04DX003 (ip), vehicle: saline with Tween-80) was 91 % of control, the T/C [7] was 92 % of control and the T/C (dose: 25.0 mg/kg/injection, schedule: Q04DX003 (ip), vehicle: saline with Tween-80) was 104 % of control.
For `C1CCC2[N-]CC3CCCCC3[N-]CC3CCCCC3[N-]CC3CCCCC3[N-]CC2C1.[Cu+2].[O-][Cl+3]([O-])([O-])O` (configuration not stated), the T/C (dose: 3.12 mg/kg/injection, schedule: Q01DX009 (ip), vehicle: Klucel (hydroxypropylcellulose) (HPC)) was 153 % of control, the T/C [14] was 161 % of control and the T/C (dose: 12.5 mg/kg/injection, schedule: Q01DX009 (ip), vehicle: Klucel (hydroxypropylcellulose) (HPC)) was 164 % of control.
`O=C(O)CNC(=O)c1ccc([N+](=O)[O-])cc1` was tested, and the T/C [13] was 89 % of control.
